# Results published in publication PMC7782499, “Progerinin, an optimized progerin-lamin A binding inhibitor, ameliorates premature senescence phenotypes of Hutchinson-Gilford progeria syndrome” (Communications Biology, 2021).
# Where “and” joins values, the source holds several entries; their conditions need not be identical. Equal values may be shown once.
# Assays:
# [1] = Solubility and stability of SLC-D011 in water and monoolein-based solution; type: physicochemical
# Experimental: Fig. S9. In vitro ADME results of SLC-D011 via oral administration. A. Formulation for complete dissolution. Due to its extremely hydrophobic property, SLC-D011 was not dissolved in water solution (left). To overcome this problem, several edible solutions were tested and monoolein- based solution was selected as a dissolving solution (right). B. SLC-D011 was very stable in solution. For complete dissolution, heating at 80℃ and sonication step were required. However, SLC -D011 was not broken despite of heating […]
# and sonication. […] C and D.
# Pharmacokinetic analysis of SLC -D011dissolved in monoolein- based solution.
# progerin = target: T1, progerin (Homo sapiens, UniProt P02545); test: Exogenous GFP-progerin expression in transfected HEK293 cells; type: cell-based; set-up: expressed in transfected cells; host or cells: HEK293 (ATCC); vector from T. Misteli (NCI); conditions: for GFP intensity after treatment with SLC-D011, Ave: average; for GFP intensity after treatment with SLC-D011: single replicates
# T1 sequence (P02545 1-614 isoform P02545-6): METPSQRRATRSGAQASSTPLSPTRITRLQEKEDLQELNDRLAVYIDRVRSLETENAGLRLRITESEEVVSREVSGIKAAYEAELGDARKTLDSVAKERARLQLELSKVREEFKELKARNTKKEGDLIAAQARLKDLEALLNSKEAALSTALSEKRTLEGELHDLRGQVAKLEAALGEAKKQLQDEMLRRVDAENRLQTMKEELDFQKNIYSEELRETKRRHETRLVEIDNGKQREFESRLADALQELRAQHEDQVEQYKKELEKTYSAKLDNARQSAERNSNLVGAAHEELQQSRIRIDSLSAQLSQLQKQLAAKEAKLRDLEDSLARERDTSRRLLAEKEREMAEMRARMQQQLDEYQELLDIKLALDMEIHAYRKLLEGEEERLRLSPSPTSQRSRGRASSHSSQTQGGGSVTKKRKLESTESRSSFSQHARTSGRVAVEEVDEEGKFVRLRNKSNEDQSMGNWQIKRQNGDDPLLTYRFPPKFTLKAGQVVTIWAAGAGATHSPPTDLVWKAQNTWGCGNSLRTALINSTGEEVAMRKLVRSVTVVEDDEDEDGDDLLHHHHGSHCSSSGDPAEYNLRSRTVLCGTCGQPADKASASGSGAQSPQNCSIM
# Experimental: A. In vivo pharmacokinetic (PK) analysis of JH010 (performed in rats). […] B Effect of SLC-D011 on human ERG (hERG). […] C In vivo pharmacokinetic analysis of SLD-D011. […] HEK293 cells transiently transfected with GFP-PG vectors were treated with SLC-D011 for 24 hr (n = 3 independent experiment; two-tailed Student’s t test). […] “Con” means dimethyl sulfoxide (DMSO)-treated control.
# GFP tag conjugated EV (GFP-EV), lamin A (GFP-LA), lamin A-C661A (GFP-LA-C661A), progerin (GFP-PG), and progerin-C611A (GFP-PG-C611A) vectors were used. GFP-PG and GFP-LA expression vectors were kindly provided by Misteli T. (National Cancer Institute [NCI], Frederick, MD, USA). GFP-LA-C661A and GFP-PG-C611A expression vectors were created by a single point mutation in CaaX motif. The CSIM sequence of lamin A, or progerin was mutated to ASIM. jetPEI (Polyplus Transfection, NY, USA) was used for transfection of expression vectors. Vectors were mixed with 1.5 μl of jetPEI in 150 mM NaCl solution. The mixture was added to HEK293 cells. After 4 h of incubation, medium was replaced with a new medium supplemented with 10% FBS.
# Protein was extracted from cells using a radioimmunoprecipitation assay (RIPA) buffer (50 mM Tris-Cl, pH 7.5, 150 mM NaCl, 1% NP-40, 0.1% SDS, and 10% sodium deoxycholate). Samples were separated by sodium dodecyl sulfate-polyacrylamide gel electrophoresis (SDS-PAGE) and transferred to polyvinylidene difluoride (PVDF) membranes. Blotted membranes were blocked with 3% skimmed milk in TBS-T buffer (20 mM Tris pH 7.6, 150 mM NaCl, and 0.05% Tween 20) for 1 h followed by incubation with specific primary antibodies. Horseradish peroxidase (HRP)-conjugated goat anti-mouse, goat anti-rabbit, and mouse anti-goat IgG antibodies (Pierce, Thermo Fisher Scientific, Inc., Rockford, IL, USA) were used as secondary antibodies. Peroxidase activity was detected by chemiluminescence using an ECL kit (Intron, Seoul, Korea) following the manufacturer’s instructions. Bands were quantified using Image J software (National Institute of Health, NIH).
compound,measurement,setting,value
CC1(C)Oc2cc3oc(=O)ccc3cc2C[C@@H]1OC/C=C/c1ccccc1 [SLC-D011],Solubility in water,[1],very low solubility in water
same,Stability in monoolein-based solution,[1]; after heating and sonicating,very stable in the solution
same,"GFP intensity after treatment with SLC-D011, Ave",progerin; 10nM,23.7595 AU
same,GFP intensity after treatment with SLC-D011,progerin; 10nM,22.794 AU and 22.0662 AU and 26.4183 AU
same,"GFP intensity after treatment with SLC-D011, Ave",progerin; 50nM,15.0559 AU
same,GFP intensity after treatment with SLC-D011,progerin; 50nM,15.1696 AU and 15.171 AU and 14.827 AU
same,"GFP intensity after treatment with SLC-D011, Ave",progerin; 100nM,3.935 AU
same,GFP intensity after treatment with SLC-D011,progerin; 100nM,3.384 AU and 4.172 AU and 4.251 AU
same,"GFP intensity after treatment with SLC-D011, Ave",progerin; 500nM,1.357 AU
same,GFP intensity after treatment with SLC-D011,progerin; 500nM,1.4575 AU and 1.25 AU and 1.363 AU
same,"GFP intensity after treatment with SLC-D011, Ave",progerin; 1μM,1.02 AU
same,GFP intensity after treatment with SLC-D011,progerin; 1μM,0.898 AU and 1.076 AU and 1.085 AU
same,"GFP intensity after treatment with SLC-D011, Ave",progerin; 2μM,0.8179 AU
same,GFP intensity after treatment with SLC-D011,progerin; 2μM,0.8856 AU and 0.7639 AU and 0.8042 AU
same,"GFP intensity after treatment with SLC-D011, Ave",progerin; 5μM,0.08935 AU
same,GFP intensity after treatment with SLC-D011,progerin; 5μM,0.1141 AU and 0.03666 AU and 0.1173 AU
same,Concentration from which exogenous progerin expression is reduced,"progerin; HEK293, GFP-PG, 24 hr",100 nM
